Data published in PMC11558998, “Lipophilic bisphosphonates reduced cyst burden and ameliorated hyperactivity of mice chronically infected with Toxoplasma gondii” (mBio, 2024).

Experiments:
[1] = system: in vitro differentiated Me49 bradyzoites (cysts); test: Vacuole size of in vitro differentiated Me49 cysts (DBA/SAG1 IFA); type: cell-based, Toxoplasma gondii; conditions: 4 days, ambient CO2
Protocol: (§1) Type II Me49 or Pru was differentiated using compound 1 as previously described ([50]). Confluent HFF monolayers on glass coverslips (preincubated for 2 hours with 3 µM compound 1, as described previously) were infected with 5 × 10^3 tachyzoites of the ME49 or Pru (type 2) or EGS (type I/III) strain (no compound 1 for EGS). The cells were allowed to grow and differentiate in a 37°C incubator with ambient CO2 for 3 days (EGS was allowed to spontaneously differentiate for 4 days). […] After 7 days (Me49) or 8 days (EGS) of incubation, the cells were fixed with 3% paraformaldehyde for 10 minutes, permeabilized with 0.25% Triton X-100 for 10 minutes, and then blocked in 3% bovine serum albumin for 1 hour. The coverslips were then incubated in DBA rhodamine (for Me49)([51]) or DBA lectin (a kind gift from Diego Huet for EGS) and anti-SAG1 rat antibody (a kind gift from Vern Carruthers) for 2 hours. Then, the secondary anti-rat 488 was used to visualize the SAG1 antibody. The cells were then mounted onto microscope slides with fluoromount and DAPI (4′,6-diamidino-2-phenylindole). The slides were placed in the fridge for a minimum of 24 hours before imaging on a Delta Vision microscope. The vacuole sizes were calculated using ImageJ software.

[2] = system: in vitro derived Pru cysts; test: Vacuole size of in vitro derived Pru cysts; type: cell-based, Toxoplasma gondii
Protocol: as §1

[3] = system: type I/III EGS strain cysts; test: Vacuole size of spontaneously formed EGS cysts; type: cell-based, Toxoplasma gondii; conditions: EGS spontaneous cysts, 3x EC50, 4 days
Protocol: as §1

[4] = system: in vitro differentiated Me49 bradyzoites; test: In vitro bradyzoite viability assay (plaques); type: cell-based, Toxoplasma gondii; conditions: Me49 bradyzoites treated 4 days at 3x and 5x EC50, then plaques 14 or 16 days, vs DMSO
Protocol: The protocol for in vitro viability assay was adapted from Zwicker et al. ([52]). Confluent HFF monolayers (preincubated for 2 hours with 3 µM compound 1) were infected with 5 × 10^3 tachyzoites of the ME49 (type 2) strain. After 24 hours, the compound 1 was removed to avoid toxicity to the host cells. The cells were allowed to grow and differentiate in a 37°C incubator with ambient CO2 for 3 days. […] After 7 days of differentiation, the cysts were collected by scraping the monolayers, syringe lysing the parasites, and treatment with acid/pepsin (170 mM sodium chloride, 60 mM hydrochloric acid, and 0.1 mg/mL pepsin) for 30 minutes in a 37°C water bath. The cysts were then neutralized with 94 mM sodium carbonate (Na2CO3) and enumerated. Ten thousand bradyzoites were plated per well in a six-well plate and allowed to grow undisturbed in a 37°C incubator with 5% CO2 for 14 or 16 days. At this time, cultures were fixed with 100% ethanol and stained with 2.5× crystal violet. The control DMSO plaque image is duplicated from Fig. 1E to be used as the representative image of plaques in Fig. 1D. Plaques were quantified using a light microscope using the 4× objective.

[5] = system: ex vivo bradyzoites of Me49-RFP from brains of chronically infected mice; test: Ex vivo bradyzoite viability assay, Me49-RFP; type: cell-based, Toxoplasma gondii; conditions: inhibitors 4 hours then drug-free 14 days, 3x EC50
Protocol: (§2) Brains of chronically infected mice were collected, homogenized with seven strokes in a glass homogenizer, and then enumerated on a Delta Vision microscope [protocol adapted from reference ([45])]. Twenty-five cysts per plate were then placed in a tube for acid/pepsin (170 mM sodium chloride, 60 mM hydrochloric acid, and 0.1 mg/mL pepsin) treatment for 10 minutes in a 37°C water bath. The cysts were then neutralized with 94 mM Na2CO3. The liberated bradyzoites were then equally distributed into a 12-well plate. For the growth assay, the cells were grown in the presence of compounds or DMSO for 12 and 14 days undisturbed. For the viability assays, the cells were treated with compounds or DMSO for 4 hours before being washed with 1× PBS and then grown for 12 and 14 days in media without compounds. After 12 and 14 days, the cells were fixed with 100% ethanol and stained with 2.5× crystal violet. The control DMSO plaque image is duplicated from Fig. 2B to be used as the representative image of plaques in Fig. 2A. Plaques were quantified on a light microscope using the 4× objective and the size of the plaques was measured using Fiji (ImageJ) software.

[6] = system: ex vivo bradyzoites of the Pru strain from chronically infected mice; test: Ex vivo bradyzoite growth assay, Pru; type: cell-based, Toxoplasma gondii; conditions: 3x EC50
Protocol: as §2

[7] = system: ex vivo bradyzoites of the Pru strain from chronically infected mice; test: Ex vivo bradyzoite viability assay, Pru; type: cell-based, Toxoplasma gondii; conditions: 3x EC50
Protocol: as §2

[8] = system: Me49-RFP brain tissue cysts in Swiss Webster mice; test: Treatment of Swiss Webster mice chronically infected with Me49-RFP; type: in vivo, Toxoplasma gondii; conditions: Swiss Webster mice, 5,000 Me49-RFP i.p., BPH-1218 at 1 mg/kg daily for 16 days
[9] = system: RH-RFP tachyzoites in Swiss Webster mice; conditions: RH parasites; cited from earlier work
[10] = system: Pru-GFP brain tissue cysts in Balb/c mice; test: Treatment of Balb/c mice chronically infected with Pru-GFP; conditions: Balb/c mice, 1,500 Pru-GFP i.p., 1 mg/kg/day i.p. for 16 days from 28 dpi
Protocol: BALB/c male mice (Jackson Laboratory) were injected i.p. with a 200 µL suspension of 1,500 tachyzoites of the Pru-GFP strain T. gondii (type II genotype) (a gift from Laura Knoll). […] At 4 weeks post-infection, the brains of two mice were collected to check for the presence of cysts and to confirm that the mice were in the chronic stage. At this time, the remaining mice were injected i.p. daily for 16 consecutive days with 200 µL solvent (10% Kolliphor HS-15) or compounds dissolved in 10% HS-15. […] Mice were euthanized humanely 2 weeks after the final injection. The mouse brains were collected in 1 mL sterile PBS, minced with scissors, and homogenized using a glass homogenizer. Four 20 µL samples (80 µL total or 8% of sample) of each brain homogenate were placed on a glass microscope slide. Cysts were enumerated using a Delta Vision fluorescence microscope.

[11] = system: hyperactivity of Balb/c mice chronically infected with Pru-GFP; test: CageDot continuous monitoring of mouse activity during chronic infection; conditions: 1 mg/kg/day i.p. 16 days, 15 dpt and 2 wpt
Protocol: At this time, the remaining mice were injected i.p. daily for 16 consecutive days with 200 µL solvent (10% Kolliphor HS-15) or compounds dissolved in 10% HS-15. […] Mice were euthanized humanely 2 weeks after the final injection.
Mice were monitored during the infection using the CageDot ([30], [31]), which detects vibrations. […] Data are collected at a 100 Hz sampling rate (each second, 100 data points were collected).

[12] = system: RH-RFP tachyzoites in Swiss Webster mice; test: Mice infected with a lethal dose of T. gondii (acute infection); type: in vivo, Toxoplasma gondii; conditions: 100 RH-RFP tachyzoites i.p., daily i.p. treatment for 10 days starting 6 hours after infection
Protocol: Experiments were carried out as described previously ([16]) using 100 T. gondii tachyzoites of the RH td-Tomato strain (RH-RFP) to infect female Swiss Webster mice. Drugs were dissolved in 10% Kolliphor HS-15 and were inoculated i.p. starting 6 hours after infection and administered for 10 days. The survival of mice was monitored along with their weight. Mice were sacrificed if they lost over 20% of their body weight. Surviving mice were challenged on day 30 post-infection with 10,000 RH-RFP tachyzoites. Blood was collected at 30 dpi (before challenge) and at the time of euthanasia (3 weeks post challenge) to analyze the presence of T. gondii antibodies. To test for antibodies, we ran a western blot with RH-RFP lysate protein and probed the membrane with the serum collected from the mice. Protein extraction and western blot conditions were as done previously ([20]). After blocking with 5% milk in PBS-T (0.1% Tween 20 in phosphate buffered saline [PBS]), we washed the membrane three times for 5 minutes with PBS-T and attached it to the BioRad multiscreen tool. The RH-RFP lysate was ran throughout the whole gel to allow for testing of different serum (antibodies) on the same membrane. […]

T. gondii = system: T. gondii; design: method as in PMID 17069459; conditions: cited from earlier work

| Compound | vacuole size ([1]; 3x EC50 against tachyzoites) | vacuole size ([1]; 5x EC50 against tachyzoites) | vacuole size [2] | size of the vacuoles (cysts) [3] | number of plaques (bradyzoite viability) [4] | number of plaques, ex vivo viability [5] | number of plaques, ex vivo growth [6] | number of plaques, ex vivo viability [7] | reduction of cyst burden [8] [%] | protection against lethal acute infection [9] | reduction of cyst burden [10] [%] | activity of infected mice (nightly average energy, CageDot) [11] | protection against lethal acute infection (survival) [12] | induction of bradyzoite-specific antigen 1 (T. gondii) | replication of T. gondii (T. gondii) |
| --- | --- | --- | --- | --- | --- | --- | --- | --- | --- | --- | --- | --- | --- | --- | --- |
| CCCCCCCCCCn1cc[n+](CC(P(=O)([O-])O)P(=O)(O)O)c1 (stereo not drawn) [BPH-1218] | showed the same effect on vacuole size | diminished vacuole size | decreased the vacuole size | reduced the size of the vacuoles | plaque number was significantly reduced | reduced the viability of ex vivo bradyzoites | significant reduction in the number of plaques | significant reduction in the number of plaques | 73.6 | protected mice against a lethal acute infection | 74.0 | decreased the activity of the infected mice to similar levels of the control uninfected mice |  |  |  |
| CCCCCCCCCCCn1cc[n+](CC(O)(P(=O)([O-])O)P(=O)(O)O)c1 (stereo not drawn) [BPH-1236] |  | diminished vacuole size |  | reduced the size of the vacuoles | plaque number was significantly reduced | reduced the viability of ex vivo bradyzoites | significant reduction in the number of plaques | significant reduction in the number of plaques |  |  |  |  | protected mice against the acute infection |  |  |
| CCCCCCCCCn1cc[n+](CC(O)(P(=O)([O-])O)P(=O)(O)O)c1 (stereo not drawn) [BPH-1238] |  | diminished vacuole size |  | reduced the size of the vacuoles | plaque number was significantly reduced | reduced the viability of ex vivo bradyzoites | significant reduction in the number of plaques | significant reduction in the number of plaques |  |  |  |  |  |  |  |
| CN1CCC(c2cc(-c3ccncc3)c(-c3ccc(F)cc3)[nH]2)CC1 [Compound 1, 4-[2-(4-fluorophenyl)-5-(1-methylpiperidine-4-yl)-1H-pyrrol-3-yl]pyridine] |  |  |  |  |  |  |  |  |  |  |  |  |  | potent inducer of bradyzoite-specific antigen 1 | dramatically slow the replication |
